Assay results published in patent US7527967B2, “Recombinant baculovirus and virus-like particle” (priority 2003, dated 2009).

System: vAtEGp64S966 baculovirus (spike protein) entry into Vero E6 cells
Format: cell-based

SMILES | blocking the entry of baculovirus into Vero E6 cells
CN1CCN(CCCN2c3ccccc3Sc3ccc(Cl)cc32)CC1 [compound 0643, Prochlorperazine] | very effective in blocking the entry
CCC(=O)c1ccc2c(c1)N(CC(C)N(C)C)c1ccccc1S2 (stereo not drawn) [compound 0649, Propiomazine] | very effective in blocking the entry
CSc1ccc2c(c1)N(CCC1CCCCN1C)c1ccccc1S2 (stereo not drawn) [compound 2025, Thioridazine] | very effective in blocking the entry
